These results are taken from PMC7824103 (Viruses, 2020).

The test system of data set [1] is HEK 293T cells.
Data set [2] concerns Ebola virus/H.sapiens-tc/GIN/2014/Makona-C05 (EBOV). The data set can be described thus: organism not typed. The data set is classed as cell-based.
In data set [3] the test system is EBOV. The data set can be described thus: microbe, parasite or virus in culture. The data set is classed as cell-based, Ebola virus. To be noted: Zaire ebolavirus.
The subject of data set [4] is Marburg virus/H. sapiens-tc/AGO/2005/Angola-1379v (MARV). The data set can be described thus: organism not typed. The data set is classed as cell-based.
The test system of data set [5] is Lassa virus strain Josiah (LASV). As to the kind of experiment: microbe, parasite or virus in culture. The data set is classed as cell-based. To be noted: read-out: Max at conc (percent inhibition).
Data set [6] concerns recombinant cowpox virus expressing GFP (rCPXV-GFP). The data set can be described thus: microbe, parasite or virus in culture. The data set is classed as cell-based. To be noted: read-out: Max at conc (percent inhibition).
Data set [7] deals with recombinant vaccinia virus expressing GFP (rVACV-GFP). The data set can be described thus: organism not typed. The data set is classed as cell-based.
The subject of data set [8] is HIV-1 particles pseudotyped with VSIV G. The data set is classed as cell-based, human immunodeficiency virus 1.
Data set [9] concerns EBOV L (RdRp) activity. The data set can be described thus: cells. The data set is classed as cell-based, Ebola virus. To be noted: for IC50: Zaire ebolavirus, HEK293T/17, 24 h, read-out: IC50 (minigenome luciferase).
Data set [10] concerns EBOV. As to the kind of experiment: microbe, parasite or virus in culture. To be noted: Zaire ebolavirus; for IC50: read-out: Huh7 IC50; for IC90: read-out: Huh7 IC90. The data set is classed as cell-based, Ebola virus.
Data set [11] concerns HEK 293T/T17 cells. To be noted: human.
Data set [12] relates to herpes simplex virus 1. To be noted: cited from earlier work.
Data set [13] relates to herpes simplex virus 2. To be noted: cited from earlier work.
Data set [14] deals with vesicular stomatitis Indiana virus. To be noted: cited from earlier work.
Data set [15] deals with human parainfluenza virus 3. To be noted: cited from earlier work.
The subject of data set [16] is coxsackie virus B4. To be noted: cited from earlier work.
Data set [17] has as its system poliovirus 1. To be noted: cited from earlier work.
Data set [18] has as its system Sindbis virus. To be noted: cited from earlier work.
In data set [19] the test system is vaccinia virus. To be noted: cited from earlier work.
Data set [20] deals with reovirus type 1. To be noted: cited from earlier work.
The nature of data set [21]: in vitro.
Data set [22] has as its system patients. To be noted: human, in vivo; cited from earlier work.
For data set [23], the system named is African green monkeys. To be noted: monkey, in vivo; cited from earlier work.
For data set [24] the following is noted: mouse, in vivo; cited from earlier work.
The nature of data set [25]: in vitro. To be noted: human.
Setting [26] is: read-out: Max at conc (percent inhibition).
Where [27] appears, read: Orthopoxvirus vaccinia, read-out: Max at conc (percent inhibition).

Read-outs that look alike come from different tables or passages of the source.

In [1], NSC 133071 returned a CC50 greater than 60000 nM.

In the case of `NC(=O)c1cn([C@@H]2O[C@H](CO)[C@@H](O)[C@H]2O)c2ncnc(N)c12` [Sangivamycin, 4-amino-7-(β-D-ribofuranosyl)pyrrolo[2,3-d]pyrimidine-5-carboxamide], the 50% inhibitory concentration (IC50) was 110 ± 8 nM in [2]; 60 ± 3 nM in data set [2] (Zaire ebolavirus); 40 to 100 nM in [2] (Zaire ebolavirus, read-out: IC50 values (range across cell types)); 60 ± 3 nM in data set [3]; 100 to 300 nM in data set [4] (read-out: IC50 values (range across cell types)); greater than 4 nM in [7]. Further, the half-inhibitory concentration (IC50) was 20 ± 4 nM in data set [7] (Orthopoxvirus vaccinia); 46.4 nM in data set [9]; 103 nM in data set [10] (Huh-7, 1 h); 106 nM in [10] (Huh-7, 2 h); 57 nM in [10] (Huh-7, 4 h); 72.1 nM in data set [10] (Huh-7, 8 h). Moreover, the IC50 in data set [10] (Huh-7, 24 h) is 64.1 nM; in data set [12], 226 nM; in [13], 226 nM; in data set [14] it was 65 nM; in data set [15] it was 65 nM; in data set [16], 129 nM. The half-maximal inhibitory concentration (IC50) in data set [17] is 226 nM; in [18], 646 nM; in data set [19] it was 65 nM; in data set [20], 323 nM. Moreover, the inhibition at 0.6 µM in [2] (Zaire ebolavirus, read-out: Max at conc (percent inhibition)) is 100%; in data set [4] (setting [26]), 100%; in data set [5], 99.7%; in [6], 97%. Also, in data set [3] (setting [26]), the inhibition at 0.15 µM was determined as 100%. For the same compound, the inhibition at 0.3 µM in data set [5] turned out to be 104%; in data set [7] (setting [27]), 95.4%. Further, the inhibition at 0.075 µM in data set [7] (setting [27]) was 98%. The HIV-1 pseudotype transduction entry in data set [8] is listed as “did not affect”. The “IC50 of constant ratio S:R, relative to sangivamycin concentration” value in data set [9] stood at 46.4 nM. In data set [9], the “reduction of luciferase activity vs untreated control” value is given as “greater than 80%”. In addition, the 90% effect concentration (IC90) was found to be 148 nM in [10] (Huh-7, 1 h); 143 nM in data set [10] (Huh-7, 2 h); 132 nM in [10] (Huh-7, 4 h); 163 nM in [10] (Huh-7, 8 h); 236 nM in data set [10] (Huh-7, 24 h). The cytotoxicity result in data set [11] is given as “approximately 30%”. The same compound had a CC50 in data set [21] greater than 600 nM. The “activity against cancer in clinical trials” value in [22] was “inactive”. For the same compound, the tolerability in patients entry in data set [22] is listed as “well tolerated”. Besides, in data set [23], the tolerability entry is “tolerated”. For the same compound, the tissue retention entry in data set [24] is recorded as “retained in tissues for days”.

With sangivamycin HCl [NSC 143648], the CC50 in data set [1] is greater than 60000 nM.

In [25], `COc1cc(NS(C)(=O)=O)ccc1Nc1c2ccccc2nc2ccccc12` [NSC 249992] had a CC50 of 22000 nM.

`COc1cc(Cc2cnc(N)nc2N)cc(OC)c1OC` [NSC 106568] came in with a CC50 in data set [25] greater than 60000 nM.

For the compound `CCc1nc(N)nc(N)c1-c1ccc(Cl)cc1` [NSC 3061], the CC50 in data set [25] was 22000 nM.

The compound `C#CCC(Cc1cnc2nc(N)nc(N)c2n1)c1ccc(C(=O)N[C@@H](CCC(=O)O)C(=O)O)cc1` (stereo partly drawn) [NSC 754230] gave a CC50 in data set [25] of 4 nM.

On to `CCC(CC)COC(=O)[C@H](C)N[P@](=O)(OC[C@H]1O[C@@](C#N)(c2ccc3c(N)ncnn23)[C@H](O)[C@@H]1O)Oc1ccccc1` [Remdesivir, remdesivir, reference compound], for which the “IC50 of constant ratio S:R, relative to remdesivir concentration” value in data set [9] is 1,444 nM. Moreover, the IC50 turned out to be 1440 nM in data set [9]; 87.7 nM in data set [10] (Huh-7, 1 h); 74.6 nM in data set [10] (Huh-7, 2 h); 105 nM in [10] (Huh-7, 4 h); 116 nM in data set [10] (Huh-7, 8 h); 117 nM in data set [10] (Huh-7, 24 h). Moreover, the IC90 came out at 180 nM in data set [10] (Huh-7, 1 h); 154 nM in data set [10] (Huh-7, 2 h); 188 nM in data set [10] (Huh-7, 4 h); 224 nM in [10] (Huh-7, 8 h); 231 nM in [10] (Huh-7, 24 h).

As for `CN(Cc1cnc2nc(N)nc(N)c2n1)c1ccc(C(=O)N[C@@H](CCC(=O)O)C(=O)O)cc1` [NSC 740], in data set [25], the CC50 turned out to be 130 nM.

By IC50 is commonly meant the concentration that gives 50% inhibition. What is called inhibition is the relative decrease from the control value, in per cent. As a reminder, the IC90 is the point of the concentration-response curve where the effect stands at 90%.
